“And” between values parts separate entries of the source, which are not always exact repeats. Identical values can stand only once.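 How tested: cells in 96-well plates exposed to compound for 48 hours at five concentrations. The concentration for 50% growth inhibition is given as GI50.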 The source made the active and inactive calls. Cut-off read from the data, not from the text of the source: active = GI50 up to about 1.1 µM and inactive = higher.
How the values were obtained:
Test in all cases: inhibition of tumour cell growth, NCI panel, 48 h
[1] = test system: OVCAR-3
[2] = test system: RPMI-8226
[3] = test system: SF-268
[4] = test system: UACC-257
[5] = test system: T47D
[6] = test system: HOP-62
[7] = test system: NCI-H522
[8] = test system: LOX IMVI
[9] = test system: NCI-H460
[10] = test system: SW-620
[11] = test system: ACHN
[12] = test system: CCRF-CEM
[13] = test system: DU-145
[14] = test system: UACC-62
[15] = test system: COLO 205
[16] = test system: NCI-H226
[17] = test system: OVCAR-8
[18] = test system: PC-3
[19] = test system: NCI-H23
[20] = test system: Malme-3M
[21] = test system: A549
[22] = test system: OVCAR-5
[23] = test system: MCF7
[24] = test system: Hs-578T
[25] = test system: K562
[26] = test system: HCT-116
[27] = test system: RXF 393
[28] = test system: HL-60
[29] = test system: SNB-75
[30] = test system: SNB-19
[31] = test system: SN12C
[32] = test system: MDA-MB-435
[33] = test system: NCI/ADR-RES
[34] = test system: SK-OV-3
[35] = test system: HT-29
[36] = test system: U-251
[37] = test system: SK-MEL-2
[38] = test system: SF-295
[39] = test system: A498
[40] = test system: MDA-MB-231
[41] = test system: SK-MEL-28
[42] = test system: BT-549
[43] = test system: MOLT-4
[44] = test system: UO-31
[45] = test system: IGROV-1
[46] = test system: SF-539
[47] = test system: M14
[48] = test system: TK-10
[49] = test system: OVCAR-4
[50] = test system: 786-0
[51] = test system: SK-MEL-5
[52] = test system: EKVX
[53] = test system: KM12
[54] = test system: CAKI-1
[55] = test system: HOP-92
[56] = test system: HCT-15
[57] = test system: HCC 2998
[58] = test system: SR
[59] = test system: MDA-N

Compound: COc1cc2c(/C=C3/C(=O)Nc4ccc(O)cc43)c(Cl)[nH]c2cc1C
- GI50 [1]: 0.026 µM (active)
- GI50 [2]: 0.275 µM (active)
- GI50 [3]: 927 nM (active)
- GI50 [4]: 615 nM (active)
- GI50 [5]: 0.0462 µM (active)
- GI50 [6]: 0.127 µM (active)
- GI50 [7]: 146 nM (active)
- GI50 [8]: 77.5 nM (active)
- GI50 [9]: 454 nM (active)
- GI50 [10]: 0.0955 µM (active)
- GI50 [11]: 108 nM (active)
- GI50 [12]: 46.2 nM (active)
- GI50 [13]: 245 nM (active)
- GI50 [14]: 0.0499 µM (active)
- GI50 [15]: 192 nM (active)
- GI50 [16]: 0.258 µM (active)
- GI50 [17]: 0.281 µM (active)
- GI50 [18]: 359 nM (active)
- GI50 [19]: 230 nM (active)
- GI50 [20]: 0.0398 µM (active)
- GI50 [21]: 397 nM (active)
- GI50 [22]: 0.618 µM (active)
- GI50 [23]: 0.0748 µM (active)
- GI50 [24]: 0.0989 µM (active)
- GI50 [25]: 0.0382 µM (active)
- GI50 [26]: 89.7 nM (active)
- GI50 [27]: 176 nM (active)
- GI50 [28]: 0.0343 µM (active)
- GI50 [29]: 0.143 µM (active)
- GI50 [30]: 0.146 µM (active)
- GI50 [31]: 197 nM (active)
- GI50 [32]: < 13.7 nM (active)
- GI50 [33]: 0.249 µM (active)
- GI50 [34]: 0.0627 µM (active)
- GI50 [35]: 149 nM (active)
- GI50 [36]: 0.0521 µM (active)
- GI50 [37]: 0.883 µM (active)
- GI50 [38]: 0.0984 µM (active)
- GI50 [39]: 11.4 µM (inactive)
- GI50 [40]: 0.283 µM (active)
- GI50 [41]: 0.0149 µM (active)
- GI50 [42]: 139 nM (active)
- GI50 [43]: 39 nM (active)
- GI50 [44]: 728 nM (active)
- GI50 [45]: 0.441 µM (active)
- GI50 [46]: 0.0447 µM (active)
- GI50 [47]: 0.0897 µM (active)
- GI50 [48]: 0.398 µM (active)
- GI50 [49]: 0.562 µM (active)
- GI50 [50]: 173 nM (active)
- GI50 [51]: 0.0822 µM (active)
- GI50 [52]: 679 nM (active)
- GI50 [53]: 45 nM (active)
- GI50 [54]: 0.0893 µM (active)
- GI50 [55]: 15.9 µM (inactive)
- GI50 [56]: 0.107 µM

Compound: CCN(CC)c1ccc2cc(-c3nnc(-c4ccccc4O)o3)c(=O)oc2c1
- GI50 [1]: 5.97 µM (inactive)
- GI50 [2]: 14.6 µM (inactive)
- GI50 [3]: 6920 nM (inactive)
- GI50 [4]: 14300 nM (inactive)
- GI50 [6]: 5.51 µM (inactive)
- GI50 [7]: 5430 nM (inactive)
- GI50 [8]: 6730 nM (inactive)
- GI50 [9]: 7080 nM (inactive)
- GI50 [10]: 5.75 µM (inactive)
- GI50 [57]: 13.6 µM (inactive)
- GI50 [58]: 5.87 µM (inactive)
- GI50 [11]: 10200 nM (inactive)
- GI50 [12]: 2370 nM (inactive)
- GI50 [13]: 10300 nM (inactive)
- GI50 [14]: 10.6 µM (inactive)
- GI50 [59]: 12.5 µM (inactive)
- GI50 [15]: 7660 nM (inactive)
- GI50 [17]: 2.4 µM (inactive)
- GI50 [18]: 10300 nM (inactive)
- GI50 [19]: 8930 nM (inactive)
- GI50 [20]: 14.9 µM (inactive)
- GI50 [21]: 13600 nM (inactive)
- GI50 [22]: 16.2 µM (inactive)
- GI50 [23]: 10.3 µM (inactive)
- GI50 [24]: 20.1 µM (inactive)
- GI50 [25]: 5.96 µM (inactive)
- GI50 [26]: 5970 nM (inactive)
- GI50 [28]: 4.56 µM (inactive)
- GI50 [30]: 9.68 µM (inactive)
- GI50 [32]: 12900 nM (inactive)
- GI50 [33]: 10.5 µM (inactive)
- GI50 [34]: 17.1 µM (inactive)
- GI50 [35]: 11700 nM (inactive)
- GI50 [36]: 7.71 µM (inactive)
- GI50 [37]: 14.5 µM (inactive)
- GI50 [38]: 11.1 µM (inactive)
- GI50 [39]: 13 µM (inactive)
- GI50 [41]: 11.7 µM (inactive)
- GI50 [42]: 5750 nM (inactive)
- GI50 [43]: 3030 nM (inactive)
- GI50 [44]: 10400 nM (inactive)
- GI50 [45]: 3.12 µM (inactive)
- GI50 [46]: 8.18 µM (inactive)
- GI50 [47]: 11.1 µM (inactive)
- GI50 [49]: 6.35 µM (inactive)
- GI50 [50]: 8990 nM (inactive)
- GI50 [51]: 6.93 µM (inactive)
- GI50 [52]: 17000 nM (inactive)
- GI50 [53]: 12100 nM (inactive)
- GI50 [54]: 11.5 µM (inactive)
- GI50 [56]: 5.75 µM

Compound: CCOC(=O)c1c(-c2ccc(O)c(OC)c2)c(C#N)c(=S)n(C2OC(COC(C)=O)C(OC(C)=O)C(OC(C)=O)C2OC(C)=O)c1-c1ccccc1 (centres undefined)
- GI50 [2]: 72.9 µM (inactive)
- GI50 [3]: > 100 µM (inactive) and 70.6 µM (inactive)
- GI50 [4]: > 100 µM (inactive) and 62.2 µM (inactive)
- GI50 [6]: 61.4 µM (inactive)
- GI50 [7]: 18.8 µM (inactive) and 19.2 µM (inactive)
- GI50 [8]: 35.4 µM (inactive) and 48 µM (inactive)
- GI50 [9]: > 100 µM (inactive) and 70.1 µM (inactive)
- GI50 [10]: > 100 µM (inactive)
- GI50 [58]: > 100 µM (inactive)
- GI50 [11]: 48.8 µM (inactive) and 61.8 µM (inactive)
- GI50 [12]: 58.7 µM (inactive) and 45.4 µM (inactive)
- GI50 [13]: 38.5 µM (inactive) and 35.2 µM (inactive)
- GI50 [59]: 61.7 µM (inactive) and 39.4 µM (inactive)
- GI50 [15]: 43.3 µM (inactive) and 30.3 µM (inactive)
- GI50 [18]: 43.8 µM (inactive) and 31.4 µM (inactive)
- GI50 [19]: 43.7 µM (inactive) and 61.1 µM (inactive)
- GI50 [21]: > 100 µM (inactive) and 94.4 µM (inactive)
- GI50 [22]: > 100 µM (inactive)
- GI50 [24]: > 100 µM (inactive)
- GI50 [26]: 47.9 µM (inactive) and 63.2 µM (inactive)
- GI50 [27]: > 100 µM (inactive) and 58.9 µM (inactive)
- GI50 [28]: > 100 µM (inactive)
- GI50 [30]: > 100 µM (inactive)
- GI50 [31]: > 100 µM (inactive) and 88.9 µM (inactive)
- GI50 [32]: 56.2 µM (inactive) and 71 µM (inactive)
- GI50 [33]: 72.1 µM (inactive)
- GI50 [35]: 59.7 µM (inactive) and 32.1 µM (inactive)
- GI50 [36]: > 100 µM (inactive)
- GI50 [38]: > 100 µM (inactive)
- GI50 [39]: > 100 µM (inactive)
- GI50 [41]: 58.2 µM (inactive)
- GI50 [42]: 57.7 µM (inactive) and 32.6 µM (inactive)
- GI50 [43]: 48.9 µM (inactive) and 31.9 µM (inactive)
- GI50 [44]: 43.7 µM (inactive) and 62.1 µM (inactive)
- GI50 [47]: 82.4 µM (inactive)
- GI50 [49]: > 100 µM (inactive)
- GI50 [50]: 71.6 µM (inactive) and 52.5 µM (inactive)
- GI50 [52]: 96.8 µM (inactive) and 75.5 µM (inactive)
- GI50 [53]: 45.4 µM (inactive) and 50.8 µM (inactive)
- GI50 [54]: 65.2 µM (inactive)
- GI50 [55]: 24.9 µM (inactive)
- GI50 [56]: 98.2 µM
